Experimental data taken from US11179377B2, “Pharmaceutical compositions and uses thereof” (Embera NeuroTherapeutics, Inc., priority 2017, dated 2021).

How the values were obtained:
Format in all cases: physicochemical
[1] = Metyrapone Assay and Related Substances after 4 Weeks of Storage (HPLC Test Method B); conditions: for Assay at 1 mo (metyrapone) / Total imps at 1 mo: metyrapone method (Test Method B)
Experimental: (§1) Binary mixtures of the drug substances were prepared, stressed at 40° C./75% RH for 4 weeks and evaluated by the assay and related substances method using both analytical methods. Prototype blends containing oxazepam and metyrapone were prepared that would represent potential approaches for a single unit combination tablet with (i) one prototype using dry granulation and (ii) one prototype using wet granulation. The blends were stressed at 25° C./60% RH and at 40° C./75% RH for 4 weeks and evaluated.
Accurately weigh samples into a 500 mL volumetric flask. Add approximately 1 to 2 mL of water to disintegrate. Add sample diluent, sonicate for 15 minutes, shake for 15 minutes, and then bring to volume with sample diluent and mix well. Filter this solution and dilute to an appropriate sample concentration with sample diluent, and analyze by HPLC using the chromatographic conditions below.
(§2) The compatibility between the two compounds was evaluated as (i) neat API mixtures (1:15 and 1:30 ratios of oxazepam:metyrapone) and (ii) in prototype matrices that are representative of final forms if a simple combination tablet were to be manufactured (see Table 16). These prototypes have metyrapone and oxazepam ratios representative of a 720 mg metyrapone/24 mg oxazepam dose.
(§3) One prototype was prepared using a dry granulation process while the other was prepared using a wet granulation process. In both prototypes, metyrapone was formulated intragranularly while oxazepam included extragranularly. The excipients used in each case were similar to those used on oxazepam and metyrapone minitabs formulations. The dry granulation process was facilitated through roller compaction of the intragranular components.
(§4) Samples of API mixtures and prototype tablets (created from slugs compressed on a Carver press) were stored at 25° C./60% RH and at 40° C./75% RH in glass vials with screw caps. Samples were removed from storage after 4 weeks and analyzed for metyrapone, oxazepam and related substances using both HPLS analytical methods (Test methods A and B). Different dilutions were required to appropriately analyze for metyrapone and oxazepam from the mixtures due to the large amount of metyrapone relative to oxazepam.
(§5) The compatibility of metyrapone and oxazepam was evaluated by comparing potency and impurity profiles of the following samples: • 1. Neat oxazepam API stored for 4 weeks at 25° C./60% RH and 40° C./75% RH. • 2. Neat metyrapone API stored for 4 weeks at 25° C./60% RH and 40° C./75% RH. • 3. Binary mixtures of oxazepam and metyrapone APIs at 1:15 and 1:30 ratios stored for 4 weeks at 25° C./60% RH and 40° C./75% RH. • 4. Prototype blend prepared using the wet granulation approach (metyrapone—intragranular; oxazepam—extragranular) stored for 4 weeks at 25° C./60% RH and 40° C./75% RH. • 5. Prototype blend prepared using the dry granulation approach (roller compacted metyrapone—intragranular; oxazepam—extragranular) stored for 4 weeks at 25° C./60% RH and 40° C./75% RH.
(§6) For each active pharmaceutical component, the potency and impurity values of neat API were compared with those for the binary mixtures and prototypes. Since the methods are unable to distinguish impurities from the two actives, compatibility was assessed by the increase in total impurities and decrease in potency values of the actives. The results are shown in Table 17 for oxazepam and Table 18 for metyrapone. The % peak areas for API admixtures and prototypes are proportional to the ratio of the two actives in the corresponding samples.

[2] = Metyrapone-Oxazepam Compatibility Study, overall conclusions
Experimental: A study was conducted to assess the compatibility between oxazepam and metyrapone in a single pharmaceutical composition (e.g., single tablet unit containing both compounds).
as §1
The compatibility between the two compounds was evaluated as (i) neat API mixtures (1:15 and 1:30 ratios of oxazepam:metyrapone) and (ii) in prototype matrices that are representative of final forms if a simple combination tablet were to be manufactured (see Table 16). […]
as §4, with “Different dilutions were required to appropriately analyze for metyrapone and oxazepam from the mixtures due to the large amount of metyrapone relative to oxazepam.” left out

[3] = Oxazepam Assay and Related Substances after 4 Weeks of Storage (HPLC Test Method A); conditions: for Assay at 1 mo (oxazepam) / Total imps at 1 mo: oxazepam method (Test Method A)
Experimental: as §1
Accurately weigh samples into a volumetric flask. Add approximately 2 mL of water to disintegrate the samples. Add sample diluent, sonicate for 15 minutes, shake for 15 minutes, and then bring to volume with sample diluent and mix well. Filter the solution, dilute as needed with the sample diluent for analysis, and analyze by HPLC using the chromatographic conditions below.
as §2, §3, §4, §5, §6

[4] = 25 C. (25° C./60% RH), 4 weeks storage, Test Method B
[5] = 40 C. (40° C./75% RH), 4 weeks storage, Test Method B
[6] = 25 C. (25° C./60% RH), 4 weeks storage, Test Method A
[7] = 40 C. (40° C./75% RH), 4 weeks storage, Test Method A

## CC(C)(C(=O)c1cccnc1)c1cccnc1 [metyrapone neat, metyrapone]
[1]; [4]
  % Peak area, RRT 0.27: 0.14 % Peak area
  % Peak area, RRT 0.48: 0.05 % Peak area
  % Peak area, RRT 0.67: 0.01 % Peak area
  % Peak area, RRT 1.00 * (Metyrapone): 99.44 % Peak area
  % Peak area, RRT 1.09: 0.07 % Peak area
[1]; 25 C. (25° C./60% RH)
  Assay at 1 mo (metyrapone): 100.60%
  Total imps at 1 mo: 0.26%
[1]; [5]
  % Peak area, RRT 0.27: 0.15 % Peak area
  % Peak area, RRT 0.48: 0.06 % Peak area
  % Peak area, RRT 1.00 * (Metyrapone): 99.42 % Peak area
  % Peak area, RRT 1.09: 0.09 % Peak area
[1]; 40 C. (40° C./75% RH)
  Assay at 1 mo (metyrapone): 99.50%
  Total imps at 1 mo: 0.30%
[2]; 4 weeks storage combined with oxazepam
  impact of the incompatibility on metyrapone: minimal

## O=C1Nc2ccc(Cl)cc2C(c2ccccc2)=NC1O (centres unmarked) [oxazepam neat API, oxazepam]
[2]; in 4 weeks at 40° C./75% RH, combined with metyrapone (admixtures and prototypes)
  oxazepam degradation: up to 50%
[3]; [6]
  % Peak area, RRT 1.00 ** (Oxazepam): 99.45 % Peak area
  % Peak area, RRT 1.28: 0.25 % Peak area
  % Peak area, RRT 1.333: 0.16 % Peak area
[3]; 25 C. (25° C./60% RH)
  Assay at 1 mo (oxazepam): 95.00%
  Total imps at 1 mo: 0.41%
[3]; [7]
  % Peak area, RRT 1.00 ** (Oxazepam): 99.67 % Peak area
  % Peak area, RRT 1.28: 0.15 % Peak area
  % Peak area, RRT 1.329: 0.05 % Peak area
  % Peak area, RRT 1.333: 0.08 % Peak area
[3]; 40 C. (40° C./75% RH)
  Assay at 1 mo (oxazepam): 93.20%
  Total imps at 1 mo: 0.28%
